Laboratory results published in ChEMBL document CHEMBL1201861, “Genomics of Drug Sensitity in Cancer screening data, Wellcome Trust Sanger Institute”.

Experiments:
Experiment in all cases: cells
Mo = assay type: functional, cell-based, Homo sapiens; conditions: Homo sapiens, Mo
Description: SANGER: Inhibition of human Mo-T cell growth in a cell viability assay.

GCIY = assay type: functional, cell-based, Homo sapiens; conditions: Homo sapiens, GCIY;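 also: growth inhibition of the human GCIY cell line, read out by a cell viability assay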
Description: SANGER: Inhibition of human GCIY cell growth in a cell viability assay.

D-263MG = assay type: functional, cell-based, Homo sapiens; conditions: Homo sapiens, D-263MG
Description: SANGER: Inhibition of human D-263MG cell growth in a cell viability assay.

Calu-6 = assay type: functional, cell-based, Homo sapiens; conditions: Homo sapiens, Calu-6;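 also: growth of human Calu-6 cells, read out by a cell viability assay, IC50 marking inhibition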
Description: SANGER: Inhibition of human Calu-6 cell growth in a cell viability assay.

ONS-76 = assay type: functional, cell-based, Homo sapiens; conditions: Homo sapiens, ONS-76;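 also: growth inhibition of human ONS-76 cells, read out with a cell viability assay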
Description: SANGER: Inhibition of human ONS-76 cell growth in a cell viability assay.

COLO-684 = assay type: functional, cell-based, Homo sapiens; conditions: Homo sapiens, COLO-684
Description: SANGER: Inhibition of human COLO-684 cell growth in a cell viability assay.

DMS-114 = assay type: functional, cell-based, Homo sapiens; conditions: Homo sapiens, DMS-114
KS-1 = assay type: functional, cell-based; conditions: Homo sapiens;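 also: growth inhibition of KS-1 cells, read out with a cell viability assay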
Description: SANGER: Inhibition of human KS-1 cell growth in a cell viability assay.

C2BBe1 = assay type: functional, cell-based, Homo sapiens; conditions: Homo sapiens, C2BBe1;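 also: growth inhibition of C2BBe1 cells, read out through a viability assay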
Description: SANGER: Inhibition of human C2BBe1 cell growth in a cell viability assay.

A704 = assay type: functional, cell-based; conditions: Homo sapiens;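 also: growth inhibition of human A704 cells, read out with a cell viability assay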
Description: SANGER: Inhibition of human A704 cell growth in a cell viability assay.

MEG-01 = assay type: functional, cell-based, Homo sapiens; conditions: Homo sapiens, MEG-01;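 also: growth inhibition of MEG-01 cells, read out by a cell viability assay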
Description: SANGER: Inhibition of human MEG-01 cell growth in a cell viability assay.

MZ2-MEL = assay type: functional, cell-based, Homo sapiens; conditions: Homo sapiens, MZ2-MEL;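 also: growth inhibition of MZ2-MEL cells read out with a cell viability assay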
Description: SANGER: Inhibition of human MZ2-MEL cell growth in a cell viability assay.

SW684 = assay type: functional, cell-based, Homo sapiens; conditions: Homo sapiens, SW684; read-out: IC50;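 also: growth inhibition of human SW684 cells, measured by a cell viability assay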
Description: SANGER: Inhibition of human SW684 cell growth in a cell viability assay.

TK-10 = assay type: functional, cell-based, Homo sapiens; conditions: Homo sapiens, TK-10;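 also: growth inhibition of TK-10 cells, read out in a cell viability assay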
Description: SANGER: Inhibition of human TK10 cell growth in a cell viability assay.

MHH-PREB-1 = assay type: functional, cell-based, Homo sapiens; conditions: Homo sapiens, MHH-PREB-1;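 also: cell viability assay measuring inhibition of proliferation of human MHH-PREB-1 cells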
Description: SANGER: Inhibition of human MHH-PREB-1 cell growth in a cell viability assay.

OVCAR-4 = assay type: functional, cell-based, Homo sapiens; conditions: Homo sapiens, OVCAR-4;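 also: growth inhibition of human OVCAR-4 cells, measured with a cell viability assay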
Description: SANGER: Inhibition of human OVCAR-4 cell growth in a cell viability assay.

IST-MES1 = assay type: functional, cell-based, Homo sapiens; conditions: Homo sapiens, IST-MES1;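 also: growth inhibition of IST-MES1 cells, measured with a cell viability assay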
Description: SANGER: Inhibition of human IST-MES1 cell growth in a cell viability assay.

BB65-RCC = assay type: functional, cell-based, Homo sapiens; conditions: Homo sapiens, BB65-RCC;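 also: growth inhibition of the cell line, measured with a cell viability assay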
Description: SANGER: Inhibition of human BB65-RCC cell growth in a cell viability assay.

SH-4 = assay type: functional, cell-based; conditions: Homo sapiens;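 also: growth inhibition of SH-4 cells, read out with a cell viability assay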
Description: SANGER: Inhibition of human SH-4 cell growth in a cell viability assay.

MZ7-mel = assay type: functional, cell-based, Homo sapiens; conditions: Homo sapiens, MZ7-mel;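 also: growth inhibition of human MZ7-mel cells, measured by a cell viability assay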
Description: SANGER: Inhibition of human MZ7-mel cell growth in a cell viability assay.

ES8 = assay type: functional, cell-based, Homo sapiens; conditions: Homo sapiens, ES8;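 also: growth inhibition of human ES8 cells, read out with a cell viability assay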
Description: SANGER: Inhibition of human ES8 cell growth in a cell viability assay.

LB831-BLC = assay type: functional, cell-based, Homo sapiens; conditions: Homo sapiens, LB831-BLC;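 also: growth inhibition of LB831-BLC cells, read out with a cell viability assay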
Description: SANGER: Inhibition of human LB831-BLC cell growth in a cell viability assay.

TE-5 = assay type: functional, cell-based, Homo sapiens; conditions: Homo sapiens, TE-5;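 also: inhibition of cell growth, read out by a cell viability assay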
Description: SANGER: Inhibition of human TE-5 cell growth in a cell viability assay.

KNS-81-FD = assay type: functional, cell-based, Homo sapiens; conditions: Homo sapiens, KNS-81-FD;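 also: growth inhibition of KNS-81-FD cells, read out with a cell viability assay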
Description: SANGER: Inhibition of human KNS-81-FD cell growth in a cell viability assay.

RS4-11 = assay type: functional, cell-based, Homo sapiens; conditions: Homo sapiens, RS4-11;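 also: growth inhibition of RS4-11 cells, read out by a cell viability assay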
Description: SANGER: Inhibition of human RS4-11 cell growth in a cell viability assay.

IST-SL1 = assay type: functional, cell-based, Homo sapiens; conditions: Homo sapiens, IST-SL1;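 also: growth inhibition of human IST-SL1 cells, read out with a cell viability assay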
Description: SANGER: Inhibition of human IST-SL1 cell growth in a cell viability assay.

LOX IMVI = assay type: functional, cell-based, Homo sapiens; conditions: Homo sapiens, LOX IMVI
Description: SANGER: Inhibition of human LOXIMVI cell growth in a cell viability assay.

TE-6 = assay type: functional, cell-based, Homo sapiens; conditions: Homo sapiens, TE-6;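 also: growth inhibition of TE-6 cells, read out with a cell viability assay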
Description: SANGER: Inhibition of human TE-6 cell growth in a cell viability assay.

C8166 = assay type: functional, cell-based, Homo sapiens; conditions: Homo sapiens, C8166;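 also: growth inhibition of human C8166 cells measured by a cell viability assay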
Description: SANGER: Inhibition of human C8166 cell growth in a cell viability assay.

Ramos-2G6-4C10 = assay type: functional, cell-based, Homo sapiens; conditions: Homo sapiens, Ramos-2G6-4C10;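 also: growth inhibition of the cell line, measured by a cell viability read-out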
Description: SANGER: Inhibition of human Ramos-2G6-4C10 cell growth in a cell viability assay.

COLO-829 = assay type: functional, cell-based, Homo sapiens; conditions: Homo sapiens, COLO-829
Description: SANGER: Inhibition of human COLO-829 cell growth in a cell viability assay.

LS-513 = assay type: functional, cell-based, Homo sapiens; conditions: Homo sapiens, LS-513
Description: SANGER: Inhibition of human LS-513 cell growth in a cell viability assay.

TGBC1TKB = assay type: functional, cell-based, Homo sapiens; conditions: Homo sapiens, TGBC1TKB;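 also: growth inhibition of TGBC1TKB cells, read out by a cell viability assay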
Description: SANGER: Inhibition of human TGBC1TKB cell growth in a cell viability assay.

HAL-01 = assay type: functional, cell-based, Homo sapiens; conditions: Homo sapiens, HAL-01;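 also: growth inhibition of human HAL-01 cells, read out with a cell viability assay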
Description: SANGER: Inhibition of human HAL-01 cell growth in a cell viability assay.

SCC-15 = assay type: functional, cell-based, Homo sapiens; conditions: Homo sapiens, SCC-15;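 also: growth inhibition of SCC-15 cells, read out with a cell viability assay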
Description: SANGER: Inhibition of human SCC-15 cell growth in a cell viability assay.

KALS-1 = assay type: functional, cell-based, Homo sapiens; conditions: Homo sapiens, KALS-1; read-out: IC50;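 also: growth inhibition of KALS-1 cells, determined with a cell viability assay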
Description: SANGER: Inhibition of human KALS-1 cell growth in a cell viability assay.

L-363 = assay type: functional, cell-based, Homo sapiens; conditions: Homo sapiens, L-363
Description: SANGER: Inhibition of human L-363 cell growth in a cell viability assay.

NCI-H82 = assay type: functional, cell-based, Homo sapiens; conditions: Homo sapiens, NCI-H82;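 also: growth inhibition of NCI-H82 cells, measured with a cell viability readout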
Description: SANGER: Inhibition of human NCI-H82 cell growth in a cell viability assay.

A101D = assay type: functional, cell-based, Homo sapiens; conditions: Homo sapiens, A101D;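 also: growth inhibition of the cell line, measured with a viability assay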
Description: SANGER: Inhibition of human A101D cell growth in a cell viability assay.

L-428 = assay type: functional, cell-based, Homo sapiens; conditions: Homo sapiens, L-428
Description: SANGER: Inhibition of human L-428 cell growth in a cell viability assay.

ES6 = assay type: functional, cell-based; conditions: Homo sapiens;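 also: growth inhibition of human ES6 cells, read out with a cell viability assay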
Description: SANGER: Inhibition of human ES6 cell growth in a cell viability assay.

DEL = assay type: functional, cell-based, Homo sapiens; conditions: Homo sapiens, DEL;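 also: growth inhibition of the human DEL cell line, read out with a cell viability assay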
Description: SANGER: Inhibition of human DEL cell growth in a cell viability assay.

EW-18 = assay type: functional, cell-based, Homo sapiens; conditions: Homo sapiens, EW-18; read-out: IC50;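 also: growth inhibition of EW-18 cells, read out by a cell viability assay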
Description: SANGER: Inhibition of human EW-18 cell growth in a cell viability assay.

SK-NEP-1 = assay type: functional, cell-based, Homo sapiens; conditions: Homo sapiens, SK-NEP-1;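 also: growth inhibition of human SK-NEP-1 cells, read out by a cell viability assay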
Description: SANGER: Inhibition of human SK-NEP-1 cell growth in a cell viability assay.

no-10 = assay type: functional, cell-based, Homo sapiens; conditions: Homo sapiens;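 also: growth inhibition of no-10 cells, read out with a cell viability assay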
Description: SANGER: Inhibition of human no-10 cell growth in a cell viability assay.

QIMR-WIL = assay type: functional, cell-based, Homo sapiens; conditions: Homo sapiens, QIMR-WIL;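 also: growth inhibition of QIMR-WIL cells, read out with a cell viability assay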
Description: SANGER: Inhibition of human QIMR-WIL cell growth in a cell viability assay.

DJM-1 = assay type: functional, cell-based, Homo sapiens; conditions: Homo sapiens, DJM-1;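 also: growth inhibition of human DJM-1 cells, read out by a cell viability assay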
Description: SANGER: Inhibition of human DJM-1 cell growth in a cell viability assay.

ETK-1 = assay type: functional, cell-based, Homo sapiens; conditions: Homo sapiens, ETK-1;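 also: growth inhibition of human ETK-1 cells, read out with a cell viability assay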
Description: SANGER: Inhibition of human ETK-1 cell growth in a cell viability assay.

KM12 = assay type: functional, cell-based, Homo sapiens; conditions: Homo sapiens, KM12;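 also: KM12 cell growth inhibition, read out with a cell viability assay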
Description: SANGER: Inhibition of human KM12 cell growth in a cell viability assay.

EW-1 = assay type: functional, cell-based, Homo sapiens; conditions: Homo sapiens, EW-1
Description: SANGER: Inhibition of human EW-1 cell growth in a cell viability assay.

C/C(=C\c1csc(C)n1)[C@@H]1C[C@@H]2O[C@]2(C)CCC[C@H](C)[C@H](O)[C@@H](C)C(=O)C(C)(C)[C@@H](O)CC(=O)O1 [PATUPILONE] showed an IC50 (Mo) of over 32 nM, an IC50 (GCIY) of 6.59 nM and an IC50 (D-263MG) of over 32 nM. It also gave an IC50 (Calu-6) of 7.14 nM, an IC50 (ONS-76) of 4.1 nM and an IC50 (COLO-684) of 6.97 nM. It also gave an IC50 (DMS-114) of over 32 nM, an IC50 (KS-1) of 1.76 nM and an IC50 (C2BBe1) of over 32 nM. For the same compound, the IC50 (A704) was 14.6 nM, the IC50 (MEG-01) was 1.53 nM and the IC50 (MZ2-MEL) was 2.15 nM. For the same compound, the IC50 (SW684) was over 32 nM, the IC50 (TK-10) was 2.05 nM and the IC50 (MHH-PREB-1) was 7.51 nM. It also gave an IC50 (OVCAR-4) of 1.61 nM, an IC50 (IST-MES1) of over 32 nM and an IC50 (BB65-RCC) of 0.631 nM. It also gave an IC50 (SH-4) of 7.73 nM, an IC50 (MZ7-mel) of 17.1 nM and an IC50 (ES8) of 1.65 nM. The IC50 (LB831-BLC) was 6.03 nM, the IC50 (TE-5) was 3.04 nM and the IC50 (KNS-81-FD) was over 32 nM. For the same compound, the IC50 (RS4-11) was 2.02 nM, the IC50 (IST-SL1) was 6.37 nM and the IC50 (LOX IMVI) was over 32 nM. For the same compound, the IC50 (TE-6) was 23 nM, the IC50 (C8166) was 31.7 nM and the IC50 (Ramos-2G6-4C10) was 9.62 nM. For the same compound, the IC50 (COLO-829) was over 32 nM, the IC50 (LS-513) was over 32 nM and the IC50 (TGBC1TKB) was over 32 nM. The IC50 (HAL-01) was 5.02 nM, the IC50 (SCC-15) was 5.98 nM and the IC50 (KALS-1) was 3.19 nM. It also gave an IC50 (L-363) of 5.88 nM, an IC50 (NCI-H82) of over 32 nM and an IC50 (A101D) of 0.856 nM. It also gave an IC50 (L-428) of over 32 nM, an IC50 (ES6) of 11.2 nM and an IC50 (DEL) of 4.29 nM. It also gave an IC50 (EW-18) of 2.63 nM, an IC50 (SK-NEP-1) of 10 nM and an IC50 (no-10) of 5.56 nM. It also gave an IC50 (QIMR-WIL) of 1.19 nM, an IC50 (DJM-1) of 3.13 nM and an IC50 (ETK-1) of 0.979 nM. The IC50 (KM12) was 2.24 nM and the IC50 (EW-1) was 1.9 nM.

In the case of COc1cc(N2CCC(N3CCN(C)CC3)CC2)ccc1Nc1ncc(Cl)c(Nc2ccccc2S(=O)(=O)C(C)C)n1 [TAE-684], the IC50 (Mo) is reported as over 2000 nM, the IC50 (GCIY) is reported as 955 nM and the IC50 (D-263MG) is reported as over 2000 nM. For the same compound, the IC50 (Calu-6) was over 2000 nM, the IC50 (ONS-76) was over 2000 nM and the IC50 (COLO-684) was over 2000 nM. The IC50 (DMS-114) was over 2000 nM, the IC50 (KS-1) was 193 nM and the IC50 (C2BBe1) was 1290 nM. For the same compound, the IC50 (A704) was 1330 nM, the IC50 (MEG-01) was over 2000 nM and the IC50 (MZ2-MEL) was over 2000 nM. The IC50 (SW684) was over 2000 nM, the IC50 (TK-10) was 1050 nM and the IC50 (MHH-PREB-1) was over 2000 nM. For the same compound, the IC50 (OVCAR-4) was 406 nM, the IC50 (IST-MES1) was 988 nM and the IC50 (BB65-RCC) was over 2000 nM. For the same compound, the IC50 (SH-4) was over 2000 nM, the IC50 (MZ7-mel) was over 2000 nM and the IC50 (ES8) was 750 nM. It also gave an IC50 (LB831-BLC) of 550 nM, an IC50 (TE-5) of over 2000 nM and an IC50 (KNS-81-FD) of over 2000 nM. It also gave an IC50 (RS4-11) of over 2000 nM, an IC50 (IST-SL1) of over 2000 nM and an IC50 (LOX IMVI) of over 2000 nM. The IC50 (TE-6) was over 2000 nM, the IC50 (C8166) was over 2000 nM and the IC50 (Ramos-2G6-4C10) was over 2000 nM. For the same compound, the IC50 (COLO-829) was over 2000 nM, the IC50 (LS-513) was over 2000 nM and the IC50 (TGBC1TKB) was over 2000 nM. The IC50 (HAL-01) was 1150 nM, the IC50 (SCC-15) was over 2000 nM and the IC50 (KALS-1) was 1340 nM. It also gave an IC50 (L-363) of 824 nM, an IC50 (NCI-H82) of over 2000 nM and an IC50 (A101D) of 1570 nM. It also gave an IC50 (L-428) of over 2000 nM, an IC50 (ES6) of 776 nM and an IC50 (DEL) of under 7.81 nM. For the same compound, the IC50 (EW-18) was over 2000 nM, the IC50 (SK-NEP-1) was 235 nM and the IC50 (no-10) was over 2000 nM. For the same compound, the IC50 (QIMR-WIL) was over 2000 nM, the IC50 (DJM-1) was over 2000 nM and the IC50 (ETK-1) was 1340 nM. For the same compound, the IC50 (KM12) was over 2000 nM and the IC50 (EW-1) was 103 nM.
